# According to patent publication US20060069132A1, “Azolecarboxamide herbicides” (priority 2004, published 2006):
# Experiments:
# corn = experiment: Test B pre-/postemergence herbicide test; assay type: in vivo, Zea mays; conditions: for Plant response rating (0 to 100 scale), Corn / Plant response rating, Corn: preemergence
# Outline: (§1)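 Visual rating, 0 (no effect) to 100 (complete control), versus untreated controls after 13–15 d in greenhouse. Pre- and postemergence applications (postemergence plants 2–18 cm, 1–4 leaves); flooded paddy arm at 2-leaf stage. Compounds in non-phytotoxic solvent plus surfactant.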
# large crabgrass = experiment: Test B pre-/postemergence herbicide test; assay type: in vivo, Digitaria sanguinalis; conditions: for Plant response rating (0 to 100 scale), Crabgrass, Large / Plant response rating, Crabgrass, Large: preemergence
# Outline: as §1
# Surinam grass = experiment: Test C pre-/postemergence herbicide test; assay type: in vivo, Urochloa decumbens; conditions: for Plant response rating, Surinam Grass / Plant response rating (0 = no effect, 100 = complete control), Surinam Grass: preemergence
# Outline: (§2)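 Pre/post spray; non-phytotoxic solvent + surfactant. Post-timing 1–4 leaves, 2–18 cm. Read-out: visual % control vs untreated, day 12–14, greenhouse.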
# cocklebur = experiment: Test C pre-/postemergence herbicide test; assay type: in vivo, Xanthium strumarium; conditions: for Plant response rating, Cocklebur / Plant response rating (0 = no effect, 100 = complete control), Cocklebur: preemergence
# Outline: as §2
# eastern black nightshade = experiment: Test C pre-/postemergence herbicide test; assay type: in vivo, Solanum ptycanthum; conditions: for Plant response rating, Nightshade / Plant response rating (0 = no effect, 100 = complete control), Nightshade: preemergence
# Outline: as §2
# pigweed = experiment: Test C pre-/postemergence herbicide test; assay type: in vivo, Amaranthus retroflexus; conditions: for Plant response rating, Pigweed / Plant response rating (0 = no effect, 100 = complete control), Pigweed: preemergence
# Outline: as §2
# soybean = experiment: Test C pre-/postemergence herbicide test; assay type: in vivo, Glycine max; conditions: for Plant response rating, Soybean / Plant response rating (0 = no effect, 100 = complete control), Soybean: preemergence
# Outline: as §2
# velvetleaf = experiment: Test C pre-/postemergence herbicide test; assay type: in vivo, Abutilon theophrasti; conditions: for Plant response rating, Velvetleaf / Plant response rating (0 = no effect, 100 = complete control), Velvetleaf: preemergence
# Outline: as §2
# [1] = 125 g ai/ha, 0 is no effect, 100 is complete control
# [2] = 125 g ai/ha, visual rating, scale 0 (no effect) to 100 (complete control), postemergence
# [3] = postemergence, 500 g ai/ha, scale 0 to 100, 0 is no effect, 100 is complete control
# [4] = 500 g ai/ha, scale 0 to 100 (0 no effect, 100 complete control), visual, 12 to 14 days
# [5] = Postemergence, 500 g ai/ha, scale 0 (no effect) to 100 (complete control)
# [6] = postemergence, 125 g ai/ha, scale 0 to 100
# [7] = 500 g ai/ha, visual rating 0-100, 0 no effect, 100 complete control
# [8] = postemergence, 125 g ai/ha, visual rating, scale 0 (no effect) to 100 (complete control)
# [9] = postemergence, 500 g ai/ha, visual rating, scale 0 (no effect) to 100 (complete control)
# [10] = 125 g ai/ha, 0 to 100 scale, 0 is no effect, 100 is complete control
# [11] = 125 g ai/ha, scale 0 (no effect) to 100 (complete control), visual, 12 to 14 days
# [12] = Preemergence, 500 g ai/ha, scale 0 to 100, 0 no effect, 100 complete control
compound,measurement,setting,value
CCc1nn(C(C)(C)CC)nc1C(=O)Nc1cccc(C(=O)N(C)C)c1 [Compound 372],"Plant response rating (0 to 100 scale), Corn",corn; [1],60
same,Corn plant response rating,corn; [2],20
same,Corn plant response rating,corn; [3],60
same,"Plant response rating (0 to 100 scale), Crabgrass, Large",large crabgrass; [1],80
same,"Crabgrass, Large plant response rating",large crabgrass; [2],10
same,"Crabgrass, Large plant response rating",large crabgrass; [3],20
same,"Plant response rating, Surinam Grass","Surinam grass; 62 g ai/ha, scale 0 to 100",50
same,"Plant response rating (0 = no effect, 100 = complete control), Surinam Grass",Surinam grass; 125 g ai/ha,85
same,"Plant response rating, Surinam Grass","Surinam grass; 250 g ai/ha, scale 0-100",85
same,"Plant response rating, Surinam Grass",Surinam grass; [4],100
same,"Plant response rating, Cocklebur","cocklebur; 62 g ai/ha, scale 0 to 100",0
same,"Plant response rating (0 = no effect, 100 = complete control), Cocklebur",cocklebur; 125 g ai/ha,10
same,"Plant response rating, Cocklebur","cocklebur; 250 g ai/ha, scale 0-100",60
same,"Plant response rating, Cocklebur",cocklebur; [4],90
same,"Plant response rating, Nightshade","eastern black nightshade; 62 g ai/ha, scale 0 to 100",85
same,"Plant response rating (0 = no effect, 100 = complete control), Nightshade",eastern black nightshade; 125 g ai/ha,95
same,"Plant response rating, Nightshade","eastern black nightshade; 250 g ai/ha, scale 0-100",100
same,"Plant response rating, Nightshade",eastern black nightshade; [4],100
same,"Plant response rating, Pigweed","pigweed; 62 g ai/ha, scale 0 to 100",85
same,"Plant response rating (0 = no effect, 100 = complete control), Pigweed",pigweed; 125 g ai/ha,95
same,"Plant response rating, Pigweed","pigweed; 250 g ai/ha, scale 0-100",100
same,"Plant response rating, Pigweed",pigweed; [4],100
same,"Plant response rating, Soybean","soybean; 62 g ai/ha, scale 0 to 100",0
same,"Plant response rating (0 = no effect, 100 = complete control), Soybean",soybean; 125 g ai/ha,5
same,"Plant response rating, Soybean","soybean; 250 g ai/ha, scale 0-100",20
same,"Plant response rating, Soybean",soybean; [4],90
same,"Plant response rating, Velvetleaf","velvetleaf; 62 g ai/ha, scale 0 to 100",50
same,"Plant response rating (0 = no effect, 100 = complete control), Velvetleaf",velvetleaf; 125 g ai/ha,100
same,"Plant response rating, Velvetleaf","velvetleaf; 250 g ai/ha, scale 0-100",100
same,"Plant response rating, Velvetleaf",velvetleaf; [4],100
CCN(CC)C(=O)c1cccc(NC(=O)c2nn(C(C)(C)C)nc2C)c1 [Compound 418],"Plant response rating (0 to 100 scale), Corn",corn; [1],10
same,Corn plant response rating,corn; [5],20
same,Corn plant response rating,corn; [6],20
same,"Plant response rating (0 to 100 scale), Crabgrass, Large",large crabgrass; [1],100
same,"Crabgrass, Large plant response rating",large crabgrass; [5],30
same,"Crabgrass, Large plant response rating",large crabgrass; [6],20
same,"Plant response rating, Surinam Grass","Surinam grass; 62 g ai/ha, scale 0 to 100",50
same,"Plant response rating (0 = no effect, 100 = complete control), Surinam Grass",Surinam grass; 125 g ai/ha,85
same,"Plant response rating, Surinam Grass",Surinam grass; [4],100
same,"Plant response rating, Cocklebur","cocklebur; 62 g ai/ha, scale 0 to 100",0
same,"Plant response rating (0 = no effect, 100 = complete control), Cocklebur",cocklebur; 125 g ai/ha,0
same,"Plant response rating, Cocklebur","cocklebur; 250 g ai/ha, scale 0-100",30
same,"Plant response rating, Cocklebur",cocklebur; [4],35
same,"Plant response rating, Nightshade","eastern black nightshade; 62 g ai/ha, scale 0 to 100",95
same,"Plant response rating (0 = no effect, 100 = complete control), Nightshade",eastern black nightshade; 125 g ai/ha,95
same,"Plant response rating, Nightshade",eastern black nightshade; [4],100
same,"Plant response rating, Pigweed","pigweed; 62 g ai/ha, scale 0 to 100",100
same,"Plant response rating (0 = no effect, 100 = complete control), Pigweed",pigweed; 125 g ai/ha,100
same,"Plant response rating, Pigweed",pigweed; [4],100
same,"Plant response rating, Soybean","soybean; 62 g ai/ha, scale 0 to 100",0
same,"Plant response rating (0 = no effect, 100 = complete control), Soybean",soybean; 125 g ai/ha,20
same,"Plant response rating, Soybean",soybean; [4],90
same,"Plant response rating, Velvetleaf","velvetleaf; 62 g ai/ha, scale 0 to 100",90
same,"Plant response rating (0 = no effect, 100 = complete control), Velvetleaf",velvetleaf; 125 g ai/ha,95
same,"Plant response rating, Velvetleaf",velvetleaf; [4],100
CCn1nc(C(C)(C)C)cc1C(=O)Nc1cc(C#N)ccc1F [Compound 140],"Plant response rating, Corn",corn; [7],0
same,Corn plant response rating,corn; [8],0
same,Corn plant response rating,corn; [9],10
same,"Plant response rating, Corn",corn; [10],0
same,"Plant response rating, Crabgrass, Large",large crabgrass; [7],100
same,"Crabgrass, Large plant response rating",large crabgrass; [8],0
same,"Crabgrass, Large plant response rating",large crabgrass; [9],0
same,"Plant response rating, Crabgrass, Large",large crabgrass; [10],0
same,"Plant response rating (0 = no effect, 100 = complete control), Surinam Grass",Surinam grass; 62 g ai/ha,0
same,"Plant response rating, Surinam Grass",Surinam grass; [11],0
same,Surinam Grass plant response rating,Surinam grass; [12],70
same,"Plant response rating (0 = no effect, 100 = complete control), Cocklebur",cocklebur; 62 g ai/ha,0
same,"Plant response rating, Cocklebur",cocklebur; [11],0
same,"Plant response rating, Cocklebur","cocklebur; 250 g ai/ha, scale 0 to 100 (0 no effect, 100 complete control), visual, 12 to 14 days",0
same,Cocklebur plant response rating,cocklebur; [12],0
same,"Plant response rating (0 = no effect, 100 = complete control), Nightshade",eastern black nightshade; 62 g ai/ha,0
same,"Plant response rating, Nightshade",eastern black nightshade; [11],0
same,Nightshade plant response rating,eastern black nightshade; [12],95
same,"Plant response rating (0 = no effect, 100 = complete control), Pigweed",pigweed; 62 g ai/ha,100
same,"Plant response rating, Pigweed",pigweed; [11],100
same,Pigweed plant response rating,pigweed; [12],100
same,"Plant response rating (0 = no effect, 100 = complete control), Soybean",soybean; 62 g ai/ha,0
same,Soybean plant response rating,soybean; [12],0
same,"Plant response rating, Velvetleaf",velvetleaf; [11],0
same,Velvetleaf plant response rating,velvetleaf; [12],20
